Measured values: PubChem BioAssay AID192 (DTP/NCI, 2004)
Where “and” joins values, the source holds several entries; their conditions need not be identical. Identical values can stand only once. Inconclusive results and toxic doses are left out.

System: BDF1 mice, B16 melanoma ip, median survival T/C
Assay: NCI In Vivo Anticancer Drug Screen. Data for tumor model B16 Melanoma (intraperitoneal) in B6D2F1 (BDF1) mice
Details: endpoint: median survival time, higher = longer survival
In short: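 Read-out: survival or tumor size, given as treated/control ratio. Controls received vehicle only; animals bore transplantable tumors.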

[1] = dose: 25.0 mg/kg/injection, schedule: Q01DX009 (ip), vehicle: Klucel (hydroxypropylcellulose) (HPC)
[2] = dose: 50.0 mg/kg/injection, schedule: Q01DX009 (ip), vehicle: Klucel (hydroxypropylcellulose) (HPC)
[3] = dose: 100.0 mg/kg/injection, schedule: Q01DX009 (ip), vehicle: Klucel (hydroxypropylcellulose) (HPC)
[4] = dose: 200.0 mg/kg/injection, schedule: Q01DX009 (ip), vehicle: Klucel (hydroxypropylcellulose) (HPC)
[5] = dose: 50.0 mg/kg/injection, schedule: Q01DX009 (ip), vehicle: saline with Tween-80
[6] = dose: 100.0 mg/kg/injection, schedule: Q01DX009 (ip), vehicle: saline with Tween-80
[7] = dose: 200.0 mg/kg/injection, schedule: Q01DX009 (ip), vehicle: saline with Tween-80

Cc1ccc(Cl)cc1NC(=O)c1ccccc1
T/C (dose: 75.0 mg/kg/injection, schedule: Q01DX009 (ip), vehicle: Klucel (hydroxypropylcellulose) (HPC)): 93 % of control
T/C (dose: 150.0 mg/kg/injection, schedule: Q01DX009 (ip), vehicle: Klucel (hydroxypropylcellulose) (HPC)): 104 % of control
T/C (dose: 300.0 mg/kg/injection, schedule: Q01DX009 (ip), vehicle: Klucel (hydroxypropylcellulose) (HPC)): 105 % of control

CC(=O)c1ccccc1I
T/C [1]: 102 % of control and 113 % of control
T/C [2]: 105 % of control and 106 % of control
T/C [3]: 105 % of control and 106 % of control
T/C [4]: 102 % of control and 106 % of control

[Cl][Pt+2][Cl].[NH-]C1CCC1.[NH2-]
T/C (dose: 1.5 mg/kg/injection, schedule: Q01DX009 (ip), vehicle: saline): 176 % of control
T/C (dose: 3.0 mg/kg/injection, schedule: Q01DX009 (ip), vehicle: saline): 162 % of control

CCCCCC(O)C1C(=O)OC(C)C(O)/C=C/C=C/C=C/C=C\C=C(\C)C(O)CC(O)CC(O)CC(O)CC(O)CC(O)CC1O (stereo not drawn)
T/C (dose: 2.5 mg/kg/injection, schedule: Q01DX009 (ip), vehicle: saline): 120 % of control
T/C (dose: 5.0 mg/kg/injection, schedule: Q01DX009 (ip), vehicle: saline): 97 % of control
T/C (dose: 10.0 mg/kg/injection, schedule: Q01DX009 (ip), vehicle: saline): 88 % of control

S=C([S][Sn]([c]1ccccc1)([c]1ccccc1)[c]1ccccc1)N1CCOCC1
T/C (dose: 1.56 mg/kg/injection, schedule: Q01DX009 (ip), vehicle: saline with Tween-80): 107 % of control
T/C (dose: 3.13 mg/kg/injection, schedule: Q01DX009 (ip), vehicle: saline with Tween-80): 100 % of control
T/C (dose: 6.25 mg/kg/injection, schedule: Q01DX009 (ip), vehicle: saline with Tween-80): 110 % of control

O=C(NO)N/N=C/c1ccc(/C=N/NC(=O)NO)cc1
T/C (dose: 100.0 mg/kg/injection, schedule: Q04DX003 (ip), vehicle: saline with Tween-80): 100 % of control
T/C (dose: 200.0 mg/kg/injection, schedule: Q04DX003 (ip), vehicle: saline with Tween-80): 102 % of control
T/C (dose: 400.0 mg/kg/injection, schedule: Q04DX003 (ip), vehicle: saline with Tween-80): 90 % of control

[CH3][Sn]([CH3])([CH3])[S]C(=S)N1CCOCC1
T/C (dose: 0.75 mg/kg/injection, schedule: Q01DX009 (ip), vehicle: Klucel (hydroxypropylcellulose) (HPC)): 100 % of control
T/C (dose: 1.5 mg/kg/injection, schedule: Q01DX009 (ip), vehicle: Klucel (hydroxypropylcellulose) (HPC)): 95 % of control

COc1cc2ccc3c[n+]4ccccc4cc3c2cc1OC
T/C (dose: 25.0 mg/kg/injection, schedule: Q04DX009 (ip), vehicle: Klucel (hydroxypropylcellulose) (HPC)): 97 % of control
T/C (dose: 50.0 mg/kg/injection, schedule: Q04DX009 (ip), vehicle: Klucel (hydroxypropylcellulose) (HPC)): 93 % of control
T/C (dose: 100.0 mg/kg/injection, schedule: Q04DX009 (ip), vehicle: Klucel (hydroxypropylcellulose) (HPC)): 89 % of control
T/C (dose: 150.0 mg/kg/injection, schedule: Q04DX009 (ip), vehicle: Klucel (hydroxypropylcellulose) (HPC)): 95 % of control

CCC(=O)/C=C/C1=C(C)CCCC1(C)C
T/C [5]: 104 % of control
T/C [6]: 103 % of control
T/C [7]: 92 % of control

O=C(Cn1cc(F)c(=O)[nH]c1=O)c1ccco1
T/C [2]: 94 % of control
T/C [3]: 100 % of control
T/C [4]: 94 % of control

CC1OC(Oc2c(-c3cc(O)c(O)c(O)c3)oc3cc(O)cc(O)c3c2=O)C(O)C(O)C1O (stereo not drawn)
T/C [6]: 112 % of control
T/C [7]: 113 % of control
T/C (dose: 400.0 mg/kg/injection, schedule: Q01DX009 (ip), vehicle: saline with Tween-80): 90 % of control

CC1=CC(=O)C=CC1=Nc1ccc(N(C)C)cc1
T/C (dose: 25.0 mg/kg/injection, schedule: Q01DX009 (ip), vehicle: saline with Tween-80): 91 % of control
T/C [5]: 90 % of control

C[N+](C)(C)c1cc2c(nn1)Nc1ccccc1S2
T/C (dose: 3.12 mg/kg/injection, schedule: Q01DX009 (ip), vehicle: Klucel (hydroxypropylcellulose) (HPC)): 101 % of control
T/C (dose: 6.25 mg/kg/injection, schedule: Q01DX009 (ip), vehicle: Klucel (hydroxypropylcellulose) (HPC)): 98 % of control
T/C (dose: 12.5 mg/kg/injection, schedule: Q01DX009 (ip), vehicle: Klucel (hydroxypropylcellulose) (HPC)): 101 % of control
T/C [1]: 101 % of control
T/C [2]: 102 % of control
T/C [3]: 89 % of control

[Cl][Pd]([Cl])([Cl])[Cl]
T/C (dose: 6.25 mg/kg/injection, schedule: Q01DX009 (ip), vehicle: saline): 103 % of control
T/C (dose: 12.5 mg/kg/injection, schedule: Q01DX009 (ip), vehicle: saline): 92 % of control
